# Assay results: patent US20240408098A1, “COMBINATIONS OF KRAS G12D INHIBITORS WITH PI3Ka INHIBITORS AND RELATED METHODS OF TREATMENT” (MIRATI THERAPEUTICS, INC., priority 2021, published 2024)
# Legend:
# Type in all cases: in vivo
# [1] = tested on: AsPC-1 pancreatic cancer cell line; assay: AsPC-1 xenograft in nude/nude mice, average tumor volumes; conditions: for tumor growth inhibition: single agent; for Average Tumor Volumes: nude/nude mice, 15 mg/kg QD
# Description: (§1) Immunocompromised nude/nude mice are inoculated in the right hind flank with cells harboring a KRas G12D mutation. When tumor volumes reach between 200-400 mm^3 in size, the mice are divided into four to five groups of 5 mice each. The first group is administered vehicle only. […] The fourth group is administered the single agent dose of the KRas G12D inhibitor using the twice daily for 2 sequential days followed by 5 days off schedule in combination with the single agent dose of Irinotecan. The treatment period varies from cell line to cell line but typically is between 15-22-days. Tumor volumes are measured using a caliper every two-three days and tumor volumes are calculated by the formula: […].
# (§2) 20 to 25 nude/nude mice per study were inoculated in the right hind limb with 5×10^6 LS180 cells, AsPC-1 cells, GP2D cells, or Panc 02.03 cells. When tumor volumes reached ˜200 mm3-400 mm3 (study day 0) 5 mice in each of the groups were administered i.p. vehicle only (10% captisol in 50 mM citrate buffer pH 5.0), 30 mg/kg of Kras G12D inhibitor MRTX1133 (10% captisol in 50 mM citrate buffer, pH 5.0) either on the twice daily schedule or the twice daily for 2 consecutive days followed by 5 days off schedule, 15 mg/kg once daily of the BYL719 (0.5% methylcellulos) PI3Ka inhibitor, or 30 mg/kg of Kras G12D inhibitor on either schedule and BYL719. Tumor volumes, measured at pre-specified days, for the five mice per group were averaged and are reported for LS180, AsPC-1, GP2D, and Panc 02.03 in Tables 1, 2, 3, and 4, respectively.
# 30 nude/nude mice were inoculated with AsPC-1 cells in the hind right flank. When the tumors reached ˜300 mm^3 six treatment groups were established with 5 mice per group.
# [2] = tested on: GP2D colorectal cancer cell line; assay: GP2D xenograft in nude/nude mice, average tumor volumes
# Description: as §1
# as §2, with “respectively. […]” for “respectively.”
# [3] = tested on: PANC0203 pancreatic cancer cell line; assay: Panc 02.03 xenograft in nude/nude mice, average tumor volumes; conditions: 15 mg/kg QD
# Description: as §1, §2
# 20 nude/nude mice were inoculated with Panc 02.03 cells in the hind right flank. When the tumors reached ˜300 mm^3 four treatment groups were established with 5 mice per group.
# [4] = tested on: LS180 colon cancer cell line; assay: LS180 xenograft in nude/nude mice, average tumor volumes; conditions: for Average Tumor Volumes: nude/nude mice, 15 mg/kg QD
# Description: as §1, §2
# 25 nude/nude mice were inoculated with LS180 cells in the hind right flank. When the tumors reached ˜250 mm^3 five treatment groups were established with 5 mice per group.
smiles,measurement,setting,value
"C#Cc1c(F)ccc2cc(O)cc(-c3ncc4c(N5C[C@H]6CC[C@@H](C5)N6)nc(OC[C@@]56CCCN5C[C@H](F)C6)nc4c3F)c12 [MRTX1133, 4-(4-((1R,5S)-3,8-diazabicyclo[3.2.1]octan-3-yl)-8-fluoro-2-(((2R,7aS)-2-fluorohexahydro-1H-pyrrolizin-7a-yl)methoxy)pyrido[4,3-d]pyrimidin-7-yl)-5-ethynyl-6-fluoronaphthalen-2-ol]",tumor growth inhibition,"[1]; 30 mg/kg BID twice weekly, day 34",43%
same,Average Tumor Volumes,"[2]; 30 mg/kg BID Daily i.p., Study Day 1",300.778 mm^3
same,Average Tumor Volumes,"[2]; 30 mg/kg BID Daily i.p., Study Day 7",263.132 mm^3
same,Average Tumor Volumes,"[2]; 30 mg/kg BID Daily i.p., Study Day 10",237.628 mm^3
same,Average Tumor Volumes,"[2]; 30 mg/kg BID Daily i.p., Study Day 14",221.728 mm^3
same,Average Tumor Volumes,"[2]; 30 mg/kg BID Daily i.p., Study Day 17",221.788 mm^3
same,Average Tumor Volumes,"[2]; 30 mg/kg BID Daily i.p., Study Day 21",242.56 mm^3
same,Average Tumor Volumes,"[2]; 30 mg/kg BID Daily i.p., Study Day 26",254.57 mm^3
same,Average Tumor Volumes,"[2]; 30 mg/kg BID Daily i.p., Study Day 28",307.03 mm^3
same,Average Tumor Volumes,"[2]; 30 mg/kg BID Daily i.p., Study Day 31",333.20 mm^3
same,Average Tumor Volumes,"[2]; 30 mg/kg BID Daily i.p., Study Day 35",358.75 mm^3
"Cc1nc(NC(=O)N2CCC[C@H]2C(N)=O)sc1-c1ccnc(C(C)(C)C(F)(F)F)c1 [BYL719, (2S)-N1-[4-Methyl-5-[2-(2,2,2-trifluoro-1,1-dimethylethyl)-4-pyridinyl]-2-thiazolyl]-1,2-pyrrolidinedicarboxamide]",Average Tumor Volumes,[3]; Study Day 1,330.188 mm^3
same,Average Tumor Volumes,[3]; Study Day 4,341.414 mm^3
same,Average Tumor Volumes,[3]; Study Day 8,367.35 mm^3
same,Average Tumor Volumes,[3]; Study Day 11,487.664 mm^3
same,Average Tumor Volumes,[3]; Study Day 15,572.82 mm^3
same,Average Tumor Volumes,[3]; Study Day 18,680.306 mm^3
same,Average Tumor Volumes,[3]; Study Day 22,774.992 mm^3
same,tumor growth inhibition,"[1]; 15 mg/kg once daily, Day 34",0%
same,Average Tumor Volumes,[1]; Study Day 1,331.29 mm^3
same,Average Tumor Volumes,[1]; Study Day 6,429.172 mm^3
same,Average Tumor Volumes,[1]; Study Day 9,473.138 mm^3
same,Average Tumor Volumes,[1]; Study Day 13,531.394 mm^3
same,Average Tumor Volumes,[1]; Study Day 16,580.446 mm^3
same,Average Tumor Volumes,[1]; Study Day 20,688.564 mm^3
same,Average Tumor Volumes,[1]; Study Day 23,742.98 mm^3
same,Average Tumor Volumes,[1]; Study Day 27,918.424 mm^3
same,Average Tumor Volumes,[1]; Study Day 30,1283 mm^3
same,Average Tumor Volumes,[1]; Study Day 34,1622 mm^3
same,Average Tumor Volumes,"[2]; 15 mg/kg QD, Study Day 1",307.604 mm^3
same,Average Tumor Volumes,"[2]; 15 mg/kg QD, Study Day 7",369.474 mm^3
same,Average Tumor Volumes,"[2]; 15 mg/kg QD, Study Day 10",395.68 mm^3
same,Average Tumor Volumes,"[2]; 15 mg/kg QD, Study Day 14",467.526 mm^3
same,Average Tumor Volumes,"[2]; 15 mg/kg QD, Study Day 17",546.962 mm^3
same,Average Tumor Volumes,"[2]; 15 mg/kg QD, Study Day 21",681.056 mm^3
same,Average Tumor Volumes,"[2]; 15 mg/kg QD, Study Day 26",901.144 mm^3
same,Average Tumor Volumes,"[2]; 15 mg/kg QD, Study Day 28",1053.732 mm^3
same,Average Tumor Volumes,"[2]; 15 mg/kg QD, Study Day 31",1102.87 mm^3
same,Average Tumor Volumes,"[2]; 15 mg/kg QD, Study Day 35",1202.89 mm^3
same,tumor growth inhibition,"[4]; 15 mg/kg once daily, single agent, Day 15",44%
same,Average Tumor Volumes,[4]; Study Day 1,273.184 mm^3
same,Average Tumor Volumes,[4]; Study Day 4,501.45 mm^3
same,Average Tumor Volumes,[4]; Study Day 8,799.338 mm^3
same,Average Tumor Volumes,[4]; Study Day 11,1016.09 mm^3
same,Average Tumor Volumes,[4]; Study Day 15,1225.468 mm^3
